Measurements taken from publication PMC12655529, “Serendipitous Hinge Modulation Hypothetically Reprograms Caerin 1.1-LC Antibacterial Mechanism and Gram-Negative Selectivity” (Pharmaceutics, 2025).
Converted amounts (≈) assume the structure as drawn. Where two headings read alike, the source gives them in different places. Square brackets hold non-standard residues; d marks the D form. Ends that are not written are not given here. Peptide text beside a SMILES is read from it.

Key:
[1] = test system: Escherichia coli ATCC 8739; type: cell-based
Protocol: (§2) The antimicrobial activities of the peptides were evaluated by determining their minimal inhibitory concentration (MIC) and minimal bactericidal concentration (MBC) values following reported protocols [20]. The tested microorganisms included seven Gram-negative bacterial strains (Escherichia coli ATCC 8739, E. coli ATCC-BAA 2340, E. coli NCTC 13846, Klebsiella pneumoniae ATCC 43816, K. pneumoniae ATCC BAA-2342, Pseudomonas aeruginosa ATCC 9027, Acinetobacter baumannii ATCC BAA-747), three Gram-positive bacterial strains (Staphylococcus aureus ATCC 6538, Enterococcus faecalis NCTC 12697, MRSA NCTC 12493, and the fungal strain Candida albicans ATCC 10231. For the assay, each bacterial strain was cultured overnight at 37 °C in 100 mL of medium in a flask. The cultures were then subcultured to reach the logarithmic growth phase and diluted to 5 × 10^5 CFU/mL. Peptide samples were serially diluted two-fold in microplates, with concentrations ranging from 128 μM to 1 μM. The diluted bacterial suspensions were mixed with the peptide solutions and incubated overnight at 37 °C. The MIC values were determined by measuring the absorbance of each well using a Synergy HT plate reader (Agilent, Cheshire, UK). For MBC determination, aliquots from wells showing no visible growth were inoculated onto agar plates to assess bacterial viability. Each experiment was repeated independently three times and conducted in three independent replicates.

[2] = test system: E. coli ATCC BAA-2340; type: cell-based, Escherichia coli
Protocol: as §2

[3] = test system: E. coli NCTC 13846; type: cell-based, Escherichia coli
Protocol: as §2

[4] = test system: Klebsiella pneumoniae ATCC 43816; type: cell-based
Protocol: as §2

[5] = test system: K. pneumoniae ATCC BAA-2342; type: cell-based, Klebsiella pneumoniae
Protocol: as §2

[6] = test system: Pseudomonas aeruginosa ATCC 9027; type: cell-based
Protocol: as §2

[7] = test system: Acinetobacter baumannii ATCC BAA-747; type: cell-based
Protocol: as §2

[8] = test system: Staphylococcus aureus ATCC 6538; type: cell-based
Protocol: as §2

[9] = test system: Enterococcus faecalis NCTC 12697; type: cell-based
Protocol: as §2

[10] = test system: MRSA NCTC 12493; type: cell-based, Staphylococcus aureus
Protocol: as §2

[11] = test system: horse red blood cells; assay: Haemolysis assay; type: cell-based; conditions: concentration inducing 10% haemolysis of horse erythrocytes; 4% (v/v) in PBS, 2 h, 37 °C, absorbance 570 nm; no haemolysis at maximum testing concentration (128 μM) recorded as 256 μM
Protocol: The peptide cytotoxicity against mammalian erythrocytes was evaluated by haemolysis assay on horse red blood cells (E&O Laboratories Ltd., Falkirk, UK). Fresh horse blood was washed three times with PBS and resuspended to a final concentration of 4% (v/v) in PBS. The diluted blood suspension was then mixed with peptide solutions at varying concentrations and incubated for 2 h at 37 °C. Red blood cell suspensions treated with 0.1% Triton X-100 and PBS were used as controls. The Triton X-100-treated suspension was the positive control (for 100% haemolysis), while the PBS-treated suspension was the blank control. Following incubation, the mixtures were centrifuged at 1000× g for 10 min to separate erythrocytes from the supernatant. The absorbance of the supernatants was detected at 570 nm. The percentage haemolysis was calculated by following the equationPercentage Haemolysis = (AbsSample − AbsBlank)/(AbsPositive − AbsBlank) × 100%

[12] = test system: Gram-positive bacteria; assay: Geometric mean MIC and therapeutic index, Gram-positive; type: cell-based; conditions: geometric mean of MICs
[13] = test system: HEK 293 human embryonic kidney cells; type: cell-based
Protocol: (§1) The peptide’s cytotoxicity against normal cell lines was detected by the MTT assay. Following resuscitation from cryopreservation (−80 °C), the cell line underwent multiple passages to ensure viability and adaptation. Cells were then seeded into 96-well plates and maintained at 37 °C in a 5% CO2 humidified atmosphere for 24 h to achieve proper adherence. After incubation, cells were serum-starved for 4 h using foetal bovine serum (FBS)-free medium (ThermoFisher, Waltham, MA, USA) to synchronise cell cycle progression. Peptide solutions were prepared at concentrations ranging from 128 μM to 1 μM (serial two-fold dilutions) and applied to the cells. Following peptide treatment, 10 μL of MTT (3-(4,5-dimethylthiazol-2-yl)-2,5-diphenyltetrazolium bromide) solution (5 mg/mL in PBS) was added to each well and incubated for 2 h at 37 °C. The medium was then carefully aspirated, and 100 μL of DMSO was added to dissolve the formazan crystals. Absorbance was measured at 570 nm using a microplate reader (Agilent, Cheshire, UK), with a reference wavelength of 630 nm to account for background interference. Experiments were conducted in triplicate and repeated three independent times.

[14] = test system: HMEC-1 human microvascular endothelial cells; type: cell-based; conditions: 24 h
Protocol: as §1

[15] = test system: HaCaT human keratinocytes; type: cell-based; conditions: 24 h
Protocol: as §1

[16] = test system: MRC-5 human embryonic lung fibroblasts; type: cell-based; conditions: 24 h
Protocol: as §1

[17] = test system: RAW 264.7 murine macrophages; type: cell-based; conditions: 24 h
Protocol: as §1

[18] = test system: E. coli (ATCC-BAA 2340); type: cell-based, Escherichia coli
Protocol: The peptide sensitivity was determined in different salt- and serum-containing environments. Bacterial strains were prepared following the MIC detection protocol described previously. To evaluate peptide sensitivity under physiological conditions, various concentrations of salt ions (150 mM NaCl, 4.5 mM KCl, 2 mM CaCl2, 1 mM MgCl2, 8 µM ZnCl2, 6 µM NH4Cl, or 4 µM FeCl3) and serum (10% FBS) were prepared in McCartney bottles prior to the addition of bacterial suspensions. The subcultured bacterial suspensions were then introduced to these modified media conditions. For MIC determination, the treated bacterial suspensions were diluted and dispensed into 96-well plates containing peptide solutions at graded concentrations. This assay allowed for the detection of potential alterations in MIC values, serving as an indicator of peptide sensitivity under different physiological conditions. All experiments were independently repeated three times, each with three replicates.

[19] = test system: Galleria mellonella larvae; assay: In vivo toxicity in larvae; conditions: uninfected G. mellonella larvae, injection at 1×, 2×, 4× MIC, n = 10 per group, observed five days
[20] = test system: TNF-α secretion of LPS-stimulated RAW 264.7 cells; assay: LPS neutralisation assay (TNF-α ELISA); type: cell-based, murine; conditions: RAW 264.7, 100 ng/mL LPS, 24 h, peptide and hydrocortisone at the same concentration (hydrocortisone 10 μg/mL), LPS alone approximately 100 ng/mL
Protocol: Murine macrophage RAW 264.7 cells were cultured in 6-well plates at a density of 5 × 10^5 cells per well and allowed to adhere for 24 h at 37 °C in a 5% CO2 humidified incubator. Cells were then stimulated with 100 ng/mL LPS in the presence or absence of test peptides at varying concentrations (typically 1–100 μM). Hydrocortisone (10 μg/mL) served as the positive control for anti-inflammatory activity. After 24 h of incubation, cell culture supernatants were collected and centrifuged at 300× g for 10 min to remove cellular debris. Tumour necrosis factor-alpha (TNF-α) secretion was quantified using a mouse TNF-α ELISA Development Kit (ThermoFisher Scientific, Waltham, MA, USA) according to the manufacturer’s protocol.

[21] = test system: Gram-negative bacteria; assay: Geometric mean MIC and therapeutic index, Gram-negative; type: cell-based; conditions: geometric mean of MICs
[22] = first value of MIC/MBC cell, 5 × 10^5 CFU/mL, overnight 37 °C, absorbance
[23] = second value of MIC/MBC cell, agar plating

## GLLSVLGSLKLIVPHVVPLIAEKL-NH2 [Caerin 1.1-LC]
[1]; ATCC 8739
  MBC, E. coli (ATCC 8739): 64 µM
  MIC, E. coli (ATCC 8739): 16 µM
[2]
  MBC, E. coli (ATCC BAA-2340): 16 µM
  MIC, E. coli (ATCC BAA-2340): 8 µM
[3]
  MBC, E. coli (NCTC 13846): 32 µM
  MIC, E. coli (NCTC 13846): 4 µM
[4]; ATCC 43816
  MBC, K. pneumoniae (ATCC 43816): 64 µM
  MIC, K. pneumoniae (ATCC 43816): 16 µM
[5]
  MBC, K. pneumoniae (ATCC BAA-2342): 64 µM
  MIC, K. pneumoniae (ATCC BAA-2342): 16 µM
[6]
  MBC, P. aeruginosa (ATCC 9027): 128 µM
  MIC, P. aeruginosa (ATCC 9027): 64 µM
[7]; ATCC BAA-747
  MBC, A. baumannii (ATCC BAA-747): 128 µM
  MIC, A. baumannii (ATCC BAA-747): 16 µM
[8]; ATCC 6538
  MBC, S. aureus (ATCC 6538): 128 µM
  MIC, S. aureus (ATCC 6538): 64 µM
[9]; NCTC 12697
  MBC, E. faecalis (NCTC 12697): >128 µM
  MIC, E. faecalis (NCTC 12697): >128 µM
[10]
  MBC, MRSA (NCTC 12493): 128 µM
  MIC, MRSA (NCTC 12493): 32 µM
[11]
  HC10: 37.5 µM
[12]
  GM MIC Gram-Positive: 14.25 µM
[13]; 24 h
  IC50: 10.8 µM
[14]
  IC50: 79.3 µM
[15]
  IC50: 61.2 µM
[16]
  IC50: 14.8 µM
[17]
  IC50: 6 µM
[18]; ATCC-BAA 2340
  MIC, Ca^2+: 64 µM
  MIC, FBS: 32 µM
  MIC, Fe^3+: 16 µM
  MIC, K^+: 16 µM
  MIC, Mg^2+: 32 µM
  MIC, NH4^+: 16 µM
  MIC, Na^+: 16 µM
[19]
  toxicity to larvae (mortality): complete mortality by day four or five post-injection

## C[C@]12CCC(=O)C=C1CC[C@@H]1[C@@H]2[C@@H](O)C[C@@]2(C)[C@H]1CC[C@]2(O)C(=O)CO [hydrocortisone]
[20]
  TNF-α level after LPS stimulation: approximately 22.3 ng/mL

## CC[C@H](C)[C@H](NC(=O)[C@H](CCCCN)NC(=O)[C@@H]1CCCN1C(=O)[C@H](NC(=O)[C@H](NC(=O)[C@H](Cc1c[nH]cn1)NC(=O)[C@@H]1CCCN1C(=O)[C@@H](NC(=O)[C@@H](NC(=O)[C@H](CCCCN)NC(=O)[C@H](CCCCN)NC(=O)[C@H](CC(C)C)NC(=O)[C@H](CO)NC(=O)[C@H](CCCCN)NC(=O)[C@H](CC(C)C)NC(=O)[C@@H](NC(=O)[C@H](CO)NC(=O)[C@H](CC(C)C)NC(=O)[C@H](CC(C)C)NC(=O)CN)C(C)C)[C@@H](C)CC)C(C)C)C(C)C)C(C)C)C(=O)N[C@@H](C)C(=O)N[C@@H](CCC(=O)O)C(=O)N[C@@H](CCCCN)C(=O)N[C@@H](CC(C)C)C(N)=O [Caerin 1.1-LC 7.11.19K.V(D)V(D)] (H-GLLSVLKSLKKIVPH[dV][dV]PKIAEKL-NH2)
[1]; ATCC 8739
  MBC, E. coli (ATCC 8739): 4 µM (≈ 10.4 µg/mL)
[1]; first value of MIC/MBC cell, 5 × 10^5 CFU/mL, peptide 128 to 1 μM two-fold, overnight 37 °C, absorbance, repeated three times
  MIC, E. coli (ATCC 8739): 2 µM (≈ 5.22 µg/mL)
[2]
  MBC, E. coli (ATCC BAA-2340): 4 µM (≈ 10.4 µg/mL)
  MIC, E. coli (ATCC BAA-2340): 4 µM (≈ 10.4 µg/mL)
[3]
  MBC, E. coli (NCTC 13846): 8 µM (≈ 20.9 µg/mL)
  MIC, E. coli (NCTC 13846): 8 µM (≈ 20.9 µg/mL)
[4]; [22]
  MIC, K. pneumoniae (ATCC 43816): 64 µM (≈ 167 µg/mL)
[4]; [23]
  MBC, K. pneumoniae (ATCC 43816): 128 µM (≈ 334 µg/mL)
[5]
  MBC, K. pneumoniae (ATCC BAA-2342): 32 µM (≈ 83.5 µg/mL)
  MIC, K. pneumoniae (ATCC BAA-2342): 16 µM (≈ 41.7 µg/mL)
[6]
  MBC, P. aeruginosa (ATCC 9027): 4/4 µM
  MIC, P. aeruginosa (ATCC 9027): 4/4 µM
[7]; [22]
  MIC, A. baumannii (ATCC BAA-747): 32 µM (≈ 83.5 µg/mL)
[7]; [23]
  MBC, A. baumannii (ATCC BAA-747): 128 µM (≈ 334 µg/mL)
[8]; [22]
  MIC, S. aureus (ATCC 6538): 128 µM (≈ 334 µg/mL)
[8]; [23]
  MBC, S. aureus (ATCC 6538): 128 µM (≈ 334 µg/mL)
[9]; [22]
  MIC, E. faecalis (NCTC 12697): >128 µM
[9]; [23]
  MBC, E. faecalis (NCTC 12697): >128 µM
[10]
  MBC, MRSA (NCTC 12493): 64 µM (≈ 167 µg/mL)
  MIC, MRSA (NCTC 12493): 64 µM (≈ 167 µg/mL)
[11]
  HC10: 256 µM
[21]
  GM MIC Gram-Negative: 9.75 µM
[12]
  GM MIC Gram-Positive: 128 µM
[13]; MTT, peptide 128 to 1 μM, absorbance 570 nm, triplicate, three independent repeats, NI = no inhibition activity, read-out: IC50, HEK 293
  IC50: 130 µM
[18]; ATCC-BAA 2340
  MIC, Control: 4 µM (≈ 10.4 µg/mL)
  MIC, FBS: 16 µM (≈ 41.7 µg/mL)
  MIC, Fe^3+: 4 µM (≈ 10.4 µg/mL)
  MIC, K^+: 4 µM (≈ 10.4 µg/mL)
  MIC, Mg^2+: 32 µM (≈ 83.5 µg/mL)
  MIC, NH4^+: 4 µM (≈ 10.4 µg/mL)
  MIC, Na^+: 16 µM (≈ 41.7 µg/mL)
[18]; E. coli (ATCC-BAA 2340), medium with 2 mM CaCl2
  MIC, Ca^2+: 128 µM (≈ 334 µg/mL)
